Test system: cigarette smoke-induced cell accumulation in murine BALF
Assay: Cigarette smoke model
Assay type: in vivo, A/J mice

For `CCC(=O)O[C@]1(C(=O)SCF)[C@H](C)C[C@H]2[C@@H]3C[C@H](F)C4=CC(=O)C=C[C@]4(C)[C@@]3(F)[C@@H](O)C[C@@]21C` [fluticasone propionate], which “Anti-inflammatory effect as monotherapy in the cigarette smoke model” value (monotherapy, at the dose used for co-administration (FP dosed at 50 μg/mL)) is on record?
Its value is “lacks any significant effect”.

`C[C@@H]1C[C@H]2[C@@H]3CCC4=CC(=O)C=C[C@]4(C)[C@@]3(F)[C@@H](O)C[C@]2(C)[C@@]1(O)C(=O)CO` [dexamethasone] was tested. Which “Activity in the cigarette smoke model” value (0.3-10 mg/kg, p.o.) did it give?
Its value is “inactive”.

— patent US9340545B2, “Quinazolin-4 (3H)—one derivatives used as P13 kinase inhibitors” (Respivert Limited, priority 2011, dated 2016)
